Laboratory results reported in US10399974B2, “N2-phenyl-pyrido[3,4-D]pyrimidine-2, 8-diamine derivatives and their use as Mps1 inhibitors” (Cancer Research Technology Limited, priority 2014, dated 2019).
pIC50: −log10 of the molar value. Read-outs that look alike come from different tables or passages of the source.

Target: full length MPS1 (Homo sapiens (Human), UniProt P33981)
Experiment: Measurement of Inhibition of MPS1 Kinase
Assay type: biochemical
Protocol: Measurement of Inhibition of MPS1 Kinase
(5 μM), ATP (10 μM), either DMSO (1% v/v) or the test compound (in the range 0.25 nM-100 μM in 1% DMSO) and assay buffer (50 mM HEPES (pH 7.0), 0.02% NaN3, 0.01% BSA, 0.1 mM Orthovandate, […], 1 μM DTT, Roche protease inhibitor). The reaction was carried out for 60 min at room temperature and stopped by the addition of buffer (10 μl) containing 20 mM EDTA, 0.05% (v/v) Brij-35, in 0.1M HEPES-buffered saline (Free acid, Sigma, UK). The plate was read on a Caliper EZ reader II (Caliper Life Sciences).
The reader provides a Software package (‘Reviewer’) which converts the peak heights into % conversion by measuring both product and substrate peak and also allows selection of control well which represent 0% and 100% inhibition, respectively. The % inhibition of the compounds is calculated relative to the means of selected control wells. IC50s are determined by testing the compounds at a range of concentrations from 0.25 nM-100 μM. The % inhibitions at each concentration are then fitted to a 4 parameter logistic fit: y=(a+((b−a)/(1+((c/x^d)))) where a=asym min, b=asym max, c=IC50 and d=hill coefficient

[1] = full length MPS1 12.5 nM or 3 nM, H236 peptide 5 μM, ATP 10 μM, 60 min at room temperature, Caliper EZ reader II, read-out: MPS1 IC50

Chain of full length MPS1 (P33981 whole entry): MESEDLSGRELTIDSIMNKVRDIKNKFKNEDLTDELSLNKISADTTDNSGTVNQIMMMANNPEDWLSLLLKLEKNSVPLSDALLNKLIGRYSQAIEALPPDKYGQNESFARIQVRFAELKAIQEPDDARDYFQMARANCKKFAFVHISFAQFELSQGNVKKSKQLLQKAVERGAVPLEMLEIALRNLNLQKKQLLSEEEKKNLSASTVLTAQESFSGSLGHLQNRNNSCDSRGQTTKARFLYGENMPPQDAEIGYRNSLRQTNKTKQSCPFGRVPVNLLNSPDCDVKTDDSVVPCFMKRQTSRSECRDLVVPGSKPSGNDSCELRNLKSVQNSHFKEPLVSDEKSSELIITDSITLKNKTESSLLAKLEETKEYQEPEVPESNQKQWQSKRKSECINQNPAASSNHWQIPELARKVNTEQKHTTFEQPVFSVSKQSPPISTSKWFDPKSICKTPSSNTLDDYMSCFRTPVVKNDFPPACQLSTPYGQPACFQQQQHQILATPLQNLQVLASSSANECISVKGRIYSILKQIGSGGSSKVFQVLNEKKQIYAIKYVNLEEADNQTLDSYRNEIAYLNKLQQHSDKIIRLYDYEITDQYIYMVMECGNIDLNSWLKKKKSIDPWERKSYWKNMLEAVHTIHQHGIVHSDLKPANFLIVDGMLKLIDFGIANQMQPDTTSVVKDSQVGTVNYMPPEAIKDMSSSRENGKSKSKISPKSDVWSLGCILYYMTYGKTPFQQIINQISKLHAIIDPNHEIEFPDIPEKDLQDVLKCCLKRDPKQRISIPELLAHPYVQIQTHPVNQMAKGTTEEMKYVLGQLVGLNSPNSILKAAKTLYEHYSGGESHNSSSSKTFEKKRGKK

pIC50	pIC50 [1]	SMILES
	8.70	CCOc1cc(-c2nncn2C)ccc1Nc1ncc2cc(C)nc(N3CC(C)(OC)C3)c2n1 [Example 30, N-(2-ethoxy-4-(4-methyl-4H-1,2,4-triazol-3-yl)phenyl)-8-(3-methoxy-3-methylazetidin-1-yl)-6-methylpyrido[3,4-d]pyrimidin-2-amine]
	8.10	CCOc1cc(-c2nncn2C)ccc1Nc1ncc2cc(C)nc(NCC3(O)CC3)c2n1 [Example 31, 1-(((2-((2-ethoxy-4-(4-methyl-4H-1,2,4-triazol-3-yl)phenyl)amino)-6-methylpyrido[3,4-d]pyrimidin-8-yl)amino)methyl)cyclopropanol]
	8.52	COc1cc(-c2cnc(C)n2C)ccc1Nc1ncc2cc(C)nc(N3CCC(C#N)CC3)c2n1 [Example 34, 1-(2-((4-(1,2-dimethyl-1H-imidazol-5-yl)-2-methoxyphenyl)amino)-6-methylpyrido[3,4-d]pyrimidin-8-yl)piperidine-4-carbonitrile]
	8.70	CCOc1cc(-c2nncn2C)ccc1Nc1ncc2cc(C)nc(N3CC4(CCO4)C3)c2n1 [Example 36, N-(2-ethoxy-4-(4-methyl-4H-1,2,4-triazol-3-yl)phenyl)-6-methyl-8-(1-oxa-6-azaspiro[3.3]heptan-6-yl)pyrido[3,4-d]pyrimidin-2-amine]
	8.52	CCOc1cc(-c2nncn2C)ccc1Nc1ncc2cc(C)nc(N3CCC(OC)C3)c2n1 (centres unmarked) [Example 39, N-(2-ethoxy-4-(4-methyl-4H-1,2,4-triazol-3-yl)phenyl)-8-(3-methoxypyrrolidin-1-yl)-6-methylpyrido[3,4-d]pyrimidin-2-amine]
	8.52	CCOc1cc(-c2nncn2C)ccc1Nc1ncc2cc(C)nc(N3CCC(OC)CC3)c2n1 [Example 46, N-(2-ethoxy-4-(4-methyl-4H-1,2,4-triazol-3-yl)phenyl)-8-(4-methoxypiperidin-1-yl)-6-methylpyrido[3,4-d]pyrimidin-2-amine]
	8.70	CCOc1cc(-c2nncn2C)ccc1Nc1ncc2cc(C)nc(N3CC4CC4C3)c2n1 (centres unmarked) [Example 50, 8-(3-azabicyclo[3.1.0]hexan-3-yl)-N-(2-ethoxy-4-(4-methyl-4H-1,2,4-triazol-3-yl)phenyl)-6-methylpyrido[3,4-d]pyrimidin-2-amine]
	8.70	CCOc1cc(-c2nncn2C)ccc1Nc1ncc2cc(C)nc(N3CCC(O)CC3)c2n1 [Example 52, 1-(2-(2-ethoxy-4-(4-methyl-4H-1,2,4-triazol-3-yl)phenylamino)-6-methylpyrido[3,4-d]pyrimidin-8-yl)piperidin-4-ol]
	8.40	CCOc1cc(-c2nncn2C)ccc1Nc1ncc2cc(C)nc(N3CC4(CCC4)C3)c2n1 [Example 55, N-(2-ethoxy-4-(4-methyl-4H-1,2,4-triazol-3-yl)phenyl)-6-methyl-8-(2-azaspiro[3.3]heptan-2-yl)pyrido[3,4-d]pyrimidin-2-amine]
	8.22	CCOc1cc(-c2nncn2C)ccc1Nc1ncc2cc(C)nc(N3CCCC3)c2n1 [Example 56, N-(2-ethoxy-4-(4-methyl-4H-1,2,4-triazol-3-yl)phenyl)-6-methyl-8-(pyrrolidin-1-yl)pyrido[3,4-d]pyrimidin-2-amine]
	6.29	CCOc1cc(-c2nncn2C)ccc1Nc1ncc2cc(C)nc(NC3CN(C)C3)c2n1 [Example 58, N2-(2-ethoxy-4-(4-methyl-4H-1,2,4-triazol-3-yl)phenyl)-6-methyl-N8-(1-methylazetidin-3-yl)pyrido[3,4-d]pyrimidine-2,8-diamine]
	8.40	CCOc1cc(-c2nncn2C)ccc1Nc1ncc2cc(C)nc(NCC3(OC)CCC3)c2n1 [Example 59, N2-(2-ethoxy-4-(4-methyl-4H-1,2,4-triazol-3-yl)phenyl)-N8-((1-methoxycyclobutyl)methyl)-6-methylpyrido[3,4-d]pyrimidine-2,8-diamine]

Second part, the molecule before the results:

SMILES	pIC50	pIC50 [1]
CCOc1cc(-c2nncn2C)ccc1Nc1ncc2cc(C)nc(N3CC(C)(C)C3)c2n1 [Example 29, 8-(3,3-dimethylazetidin-1-yl)-N-(2-ethoxy-4-(4-methyl-4H-1,2,4-triazol-3-yl)phenyl)-6-methylpyrido[3,4-d]pyrimidin-2-amine]	8.70	
CCOc1cc(-c2nncn2C)ccc1Nc1ncc2cc(C)nc(N3CCC(C)(O)C3)c2n1 (centres unmarked) [Example 37, 1-(2-((2-ethoxy-4-(4-methyl-4H-1,2,4-triazol-3-yl)phenyl)amino)-6-methylpyrido[3,4-d]pyrimidin-8-yl)-3-methylpyrrolidin-3-ol]		8.52
CCOc1cc(-c2nncn2C)ccc1Nc1ncc2cc(C)nc(N3CC(C(F)(F)F)C3)c2n1 [Example 40, N-(2-ethoxy-4-(4-methyl-4H-1,2,4-triazol-3-yl)phenyl)-6-methyl-8-(3-(trifluoromethyl)azetidin-1-yl)pyrido[3,4-d]pyrimidin-2-amine]		8.30
CCOc1cc(-c2nncn2C)ccc1Nc1ncc2cc(C)nc(N3CCC3(C)C)c2n1 [Example 42, 8-(2,2-dimethylazetidin-1-yl)-N-(2-ethoxy-4-(4-methyl-4H-1,2,4-triazol-3-yl)phenyl)-6-methylpyrido[3,4-d]pyrimidin-2-amine]		8.00
CCOc1cc(-c2nncn2C)ccc1Nc1ncc2cc(C)nc(N3CC(N(C)C)C3)c2n1 [Example 51, 8-(3-(dimethylamino)azetidin-1-yl)-N-(2-ethoxy-4-(4-methyl-4H-1,2,4-triazol-3-yl)phenyl)-6-methylpyrido[3,4-d]pyrimidin-2-amine]		8.22
CCOc1cc(-c2nncn2C)ccc1Nc1ncc2cc(C)nc(N[C@H](C)C(C)(C)C)c2n1 [Example 53, (R)-N8-(3,3-dimethylbutan-2-yl)-N2-(2-ethoxy-4-(4-methyl-4H-1,2,4-triazol-3-yl)phenyl)-6-methylpyrido[3,4-d]pyrimidine-2,8-diamine]		8.30
CCOc1cc(-c2nncn2C)ccc1Nc1ncc2cc(C)nc(N[C@@H](C)C(C)(C)C)c2n1 [Example 54, (S)-N8-(3,3-dimethylbutan-2-yl)-N2-(2-ethoxy-4-(4-methyl-4H-1,2,4-triazol-3-yl)phenyl)-6-methylpyrido[3,4-d]pyrimidine-2,8-diamine]		8.40
CCOc1cc(-c2nncn2C)ccc1Nc1ncc2cc(C)nc(NCC3COC3)c2n1 [Example 57, N2-(2-ethoxy-4-(4-methyl-4H-1,2,4-triazol-3-yl)phenyl)-6-methyl-N8-(oxetan-3-ylmethyl)pyrido[3,4-d]pyrimidine-2,8-diamine]		8.52
CCOc1cc(-c2nncn2C)ccc1Nc1ncc2cc(C)nc(N3CC(CC)(OC)C3)c2n1 [Example 60, N-(2-ethoxy-4-(4-methyl-4H-1,2,4-triazol-3-yl)phenyl)-8-(3-ethyl-3-methoxyazetidin-1-yl)-6-methylpyrido[3,4-d]pyrimidin-2-amine]		8.52
CCOc1cc(-c2nncn2C)ccc1Nc1ncc2cc(C)nc(N3CC(C)(OCC)C3)c2n1 [Example 61, 8-(3-ethoxy-3-methylazetidin-1-yl)-N-(2-ethoxy-4-(4-methyl-4H-1,2,4-triazol-3-yl)phenyl)-6-methylpyrido[3,4-d]pyrimidin-2-amine]		8.40
Cc1cc2cnc(Nc3ccc(-c4nncn4C)cc3OC(F)F)nc2c(N2CC(C)(C)C2)n1 [Example 62, N-(2-(difluoromethoxy)-4-(4-methyl-4H-1,2,4-triazol-3-yl)phenyl)-8-(3,3-dimethylazetidin-1-yl)-6-methylpyrido[3,4-d]pyrimidin-2-amine]		7.80
